Laboratory results as given in patent US20180371044A1, “PEPTIDOMIMETIC MACROCYCLES” (Aileron Therapeutics, Inc., priority 2015, published 2018).
Where a SMILES comes first, the peptide text is derived from it. Bridges are numbered along the chain shown (N, C = ends). [ ]: non-standard residue; d: D form. NMeY = CN[C@@H](Cc1ccc(O)cc1)C(=O)O; R8 = C=CCCCCCC[C@@](C)(N)C(=O)O; S5 = C=CCCC[C@](C)(N)C(=O)O; Nle = CCCC[C@H](N)C(=O)O
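Also: receptor expressed transiently or stably, cells stimulated in serum-free medium, EC50 from a non-linear dose-response fit, maximal response defined by reference GHRH stimulation.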

What follows are molecules tested against T1, human GHRH receptor (hGHRHR) (Homo sapiens, UniProt Q02643) (assay: GHRHR agonism measured by cAMP (HTRF) in human 293 cells expressing hGHRHR). Settings: 30 min at RT.
T1 construct: expressed in transfected cells; host or cells: Human 293 cells
T1 sequence (Q02643 23-423): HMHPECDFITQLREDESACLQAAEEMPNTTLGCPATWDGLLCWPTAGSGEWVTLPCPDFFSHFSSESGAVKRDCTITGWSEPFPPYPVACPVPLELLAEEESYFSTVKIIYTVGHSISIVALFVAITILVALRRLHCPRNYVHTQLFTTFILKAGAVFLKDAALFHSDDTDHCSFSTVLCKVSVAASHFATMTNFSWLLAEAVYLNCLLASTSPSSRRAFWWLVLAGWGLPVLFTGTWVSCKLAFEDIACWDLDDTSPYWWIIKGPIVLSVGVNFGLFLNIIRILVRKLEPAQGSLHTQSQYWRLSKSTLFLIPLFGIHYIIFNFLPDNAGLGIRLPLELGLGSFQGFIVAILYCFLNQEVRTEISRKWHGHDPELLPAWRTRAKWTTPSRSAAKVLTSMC
Assay type: cell-based
Method: GHRH (1-29) and cross-linked peptidomimetic macrocycles were tested for agonism at the human GHRH receptor (hGHRHR) at various concentrations. Human 293 cells transiently or stably expressing hGHRHR were detached from cell culture flasks with versene (Life Technologies™), suspended in serum-free medium (50 k cells/assay point), and stimulated for 30 min at RT with GHRH (1-29) (Bachem™) or cross-linked peptidomimetic macrocycles. cAMP was quantified using an HTRF®-based assay (CisBio) and used according to the manufacturer's instructions. An EC50 for each agonist was calculated from a non-linear fit of response vs dose (GraphPad™ Prism). The maximum response was determined by stimulating with 10 μM GHRH (1-29). (+=>50 nm; ++=>25-50 nm; +++=>10-25 nm; ++++=>1-10 nm; +++++=≤1 nm).
Molecule `CCCC[C@H](NC(=O)[C@@H](NC(=O)[C@H](CC(=O)O)NC(=O)[C@H](CCC(N)=O)NC(=O)[C@H](CC(C)C)NC(=O)[C@H](C)NC(=O)[C@H](CCCCN)NC(=O)[C@H](CCCNC(=N)N)NC(=O)[C@H](C)NC(=O)[C@H](CO)NC(=O)[C@H](CC(C)C)NC(=O)[C@H](CCC(N)=O)NC(=O)[C@H](C)NC(=O)[C@H](CC(C)C)NC(=O)[C@]1(C)CCCC=CCCC[C@](C)(NC(=O)[C@H](C)NC(=O)[C@@H](NC(=O)[C@H](Cc2ccccc2)NC(=O)[C@@H](NC(=O)[C@H](C)NC(=O)[C@H](CC(=O)O)NC(=O)[C@H](C)NC(=O)[C@H](Cc2ccc(O)cc2)NC)[C@@H](C)CC)[C@@H](C)O)C(=O)N[C@@H](Cc2ccc(O)cc2)C(=O)N[C@@H](CCCNC(=N)N)C(=O)N[C@@H](CCCCN)C(=O)N1)[C@@H](C)CC)C(=O)N[C@@H](CO)C(=O)N[C@@H](CCCNC(=N)N)C(N)=O` [SP-10] (H-[NMeY]ADAIFTA[S5]YRK[S5]LAQLSARKALQDI[Nle]SR-NH2; staple 9-13) has an EC50 of 1 to 10 nM.
`CCCC[C@H](NC(=O)[C@]1(C)CCCC=CCCCCCC[C@@](C)(NC(=O)[C@H](CO)NC(=O)[C@H](CC(C)C)NC(=O)[C@H](CCC(N)=O)NC(=O)[C@H](C)NC(=O)[C@H](CC(C)C)NC(=O)[C@@H](NC(=O)[C@H](CCCCN)NC(=O)[C@H](CCCNC(=N)N)NC(=O)[C@H](Cc2ccc(O)cc2)NC(=O)[C@H](CO)NC(=O)[C@H](C)NC(=O)[C@@H](NC(=O)[C@H](Cc2ccccc2)NC(=O)[C@@H](NC(=O)[C@H](C)NC(=O)[C@H](CC(=O)O)NC(=O)[C@H](C)NC(=O)[C@H](Cc2ccc(O)cc2)NC)[C@@H](C)CC)[C@@H](C)O)C(C)C)C(=O)N[C@@H](CCCNC(=N)N)C(=O)N[C@@H](CCCCN)C(=O)N[C@@H](C)C(=O)N[C@@H](CC(C)C)C(=O)N[C@@H](CCC(N)=O)C(=O)N[C@@H](CC(=O)O)C(=O)N1)C(=O)N[C@@H](CO)C(=O)N[C@@H](CCCNC(=N)N)C(N)=O` [SP-31] (H-[NMeY]ADAIFTASYRKVLAQLS[R8]RKALQD[S5][Nle]SR-NH2; staple 19-26) gave an EC50 of 1 to 10 nM.
`CCCC[C@H](NC(=O)[C@@H](NC(=O)[C@H](CC(=O)O)NC(=O)[C@H](CCC(N)=O)NC(=O)[C@H](CC(C)C)NC(=O)[C@H](CC(C)C)NC(=O)[C@H](CCCCN)NC(=O)[C@H](CCCNC(=N)N)NC(=O)[C@H](C)NC(=O)[C@H](CO)NC(=O)[C@H](CC(C)C)NC(=O)[C@H](CCC(N)=O)NC(=O)[C@H](C)NC(=O)[C@H](CC(C)C)NC(=O)[C@@H](NC(=O)[C@H](CCCCN)NC(=O)[C@H](CCCNC(=N)N)NC(=O)[C@H](Cc1ccc(O)cc1)NC(=O)[C@H](CO)NC(=O)[C@H](CC(N)=O)NC(=O)[C@@H](NC(=O)[C@H](Cc1ccccc1)NC(=O)[C@@H](NC(=O)[C@H](C)NC(=O)[C@H](CC(=O)O)NC(=O)[C@H](C)NC(=O)[C@@H](N)Cc1ccc(O)cc1)[C@@H](C)CC)[C@@H](C)O)C(C)C)[C@@H](C)CC)C(=O)N[C@@H](CO)C(=O)N[C@@H](CCCNC(=N)N)C(N)=O` [SP-5] (H-YADAIFTNSYRKVLAQLSARKLLQDI[Nle]SR-NH2) was tested, and the EC50 was 1 to 10 nM.
`CCCC[C@H](NC(=O)[C@@H](NC(=O)[C@H](CC(=O)O)NC(=O)[C@H](CCC(N)=O)NC(=O)[C@H](CC(C)C)NC(=O)[C@H](C)NC(=O)[C@H](CCCCN)NC(=O)[C@H](CCCNC(=N)N)NC(=O)[C@]1(C)CCCC=CCCC[C@](C)(NC(=O)[C@H](CC(C)C)NC(=O)[C@@H](NC(=O)[C@H](CCCCN)NC(=O)[C@H](CCCNC(=N)N)NC(=O)[C@H](Cc2ccc(O)cc2)NC(=O)[C@H](CO)NC(=O)[C@H](C)NC(=O)[C@@H](NC(=O)[C@H](Cc2ccccc2)NC(=O)[C@@H](NC(=O)[C@H](C)NC(=O)[C@H](CC(=O)O)NC(=O)[C@H](C)NC(=O)[C@H](Cc2ccc(O)cc2)NC)[C@@H](C)CC)[C@@H](C)O)C(C)C)C(=O)N[C@@H](CCC(N)=O)C(=O)N[C@@H](CC(C)C)C(=O)N[C@@H](CO)C(=O)N1)[C@@H](C)CC)C(=O)N[C@@H](CO)C(=O)N[C@@H](CCCNC(=N)N)C(N)=O` [SP-14] (H-[NMeY]ADAIFTASYRKVL[S5]QLS[S5]RKALQDI[Nle]SR-NH2; staple 15-19) showed an EC50 of 1 to 10 nM.
`CCCC[C@H](NC(=O)[C@@H](NC(=O)[C@H](CC(=O)O)NC(=O)[C@H](CCC(N)=O)NC(=O)[C@H](CC(C)C)NC(=O)[C@H](C)NC(=O)[C@H](CCCCN)NC(=O)[C@H](CCCNC(=N)N)NC(=O)[C@H](C)NC(=O)[C@H](CO)NC(=O)[C@H](CC(C)C)NC(=O)[C@H](CCC(N)=O)NC(=O)[C@H](C)NC(=O)[C@H](CC(C)C)NC(=O)[C@@H](NC(=O)[C@]1(C)CCCC=CCCCCCC[C@@](C)(NC(=O)[C@H](C)NC(=O)[C@H](CC(=O)O)NC(=O)[C@H](C)NC(=O)[C@H](Cc2ccc(O)cc2)NC)C(=O)N[C@@H](Cc2ccccc2)C(=O)N[C@@H]([C@@H](C)O)C(=O)N[C@@H](C)C(=O)N[C@@H](CO)C(=O)N[C@@H](Cc2ccc(O)cc2)C(=O)N[C@@H](CCCNC(=N)N)C(=O)N1)C(C)C)[C@@H](C)CC)C(=O)N[C@@H](CO)C(=O)N[C@@H](CCCNC(=N)N)C(N)=O` [SP-24] (H-[NMeY]ADA[R8]FTASYR[S5]VLAQLSARKALQDI[Nle]SR-NH2; staple 5-12) showed an EC50 of 1 to 10 nM.
`CCCC[C@H](NC(=O)[C@@H](NC(=O)[C@H](CC(=O)O)NC(=O)[C@H](CCC(N)=O)NC(=O)[C@H](CC(C)C)NC(=O)[C@H](C)NC(=O)[C@H](CCCCN)NC(=O)[C@H](CCCNC(=N)N)NC(=O)[C@H](C)NC(=O)[C@H](CO)NC(=O)[C@H](CC(C)C)NC(=O)[C@H](CCC(N)=O)NC(=O)[C@H](C)NC(=O)[C@H](CC(C)C)NC(=O)[C@@H](NC(=O)[C@]1(C)CCCC=CCCC[C@](C)(NC(=O)[C@@H](NC(=O)[C@H](Cc2ccccc2)NC(=O)[C@@H](NC(=O)[C@H](C)NC(=O)[C@H](CC(=O)O)NC(=O)[C@H](C)NC(=O)[C@H](Cc2ccc(O)cc2)NC)[C@@H](C)CC)[C@@H](C)O)C(=O)N[C@@H](CO)C(=O)N[C@@H](Cc2ccc(O)cc2)C(=O)N[C@@H](CCCNC(=N)N)C(=O)N1)C(C)C)[C@@H](C)CC)C(=O)N[C@@H](CO)C(=O)N[C@@H](CCCNC(=N)N)C(N)=O` [SP-9] (H-[NMeY]ADAIFT[S5]SYR[S5]VLAQLSARKALQDI[Nle]SR-NH2; staple 8-12) was tested, and the EC50 was 1 to 10 nM.
`CCCC[C@H](NC(=O)[C@@H](NC(=O)[C@H](CC(=O)O)NC(=O)[C@H](CCC(N)=O)NC(=O)[C@H](CC(C)C)NC(=O)[C@H](C)NC(=O)[C@H](CCCCN)NC(=O)[C@H](CCCNC(=N)N)NC(=O)[C@H](C)NC(=O)[C@]1(C)CCCC=CCCC[C@](C)(NC(=O)[C@@H](NC(=O)[C@H](CCCCN)NC(=O)[C@H](CCCNC(=N)N)NC(=O)[C@H](Cc2ccc(O)cc2)NC(=O)[C@H](CO)NC(=O)[C@H](C)NC(=O)[C@@H](NC(=O)[C@H](Cc2ccccc2)NC(=O)[C@@H](NC(=O)[C@H](C)NC(=O)[C@H](CC(=O)O)NC(=O)[C@H](C)NC(=O)[C@H](Cc2ccc(O)cc2)NC)[C@@H](C)CC)[C@@H](C)O)C(C)C)C(=O)N[C@@H](C)C(=O)N[C@@H](CCC(N)=O)C(=O)N[C@@H](CC(C)C)C(=O)N1)[C@@H](C)CC)C(=O)N[C@@H](CO)C(=O)N[C@@H](CCCNC(=N)N)C(N)=O` [SP-13] (H-[NMeY]ADAIFTASYRKV[S5]AQL[S5]ARKALQDI[Nle]SR-NH2; staple 14-18) gave an EC50 of 10 to 25 nM.
`CCCC[C@H](NC(=O)[C@@H](NC(=O)[C@H](CC(=O)O)NC(=O)[C@]1(C)CCCC=CCCCCCC[C@@](C)(NC(=O)[C@H](CCC(N)=O)NC(=O)[C@H](C)NC(=O)[C@H](CC(C)C)NC(=O)[C@@H](NC(=O)[C@H](CCCCN)NC(=O)[C@H](CCCNC(=N)N)NC(=O)[C@H](Cc2ccc(O)cc2)NC(=O)[C@H](CO)NC(=O)[C@H](C)NC(=O)[C@@H](NC(=O)[C@H](Cc2ccccc2)NC(=O)[C@@H](NC(=O)[C@H](C)NC(=O)[C@H](CC(=O)O)NC(=O)[C@H](C)NC(=O)[C@H](Cc2ccc(O)cc2)NC)[C@@H](C)CC)[C@@H](C)O)C(C)C)C(=O)N[C@@H](CO)C(=O)N[C@@H](C)C(=O)N[C@@H](CCCNC(=N)N)C(=O)N[C@@H](CCCCN)C(=O)N[C@@H](C)C(=O)N[C@@H](CC(C)C)C(=O)N1)[C@@H](C)CC)C(=O)N[C@@H](CO)C(=O)N[C@@H](CCCNC(=N)N)C(N)=O` [SP-29] (H-[NMeY]ADAIFTASYRKVLAQ[R8]SARKAL[S5]DI[Nle]SR-NH2; staple 17-24) gave an EC50 of 1 to 10 nM.
`CCCC[C@H](NC(=O)[C@@H](NC(=O)[C@H](CC(=O)O)NC(=O)[C@H](CCC(N)=O)NC(=O)[C@H](CC(C)C)NC(=O)[C@H](C)NC(=O)[C@H](CCCCN)NC(=O)[C@H](CCCNC(=N)N)NC(=O)[C@H](C)NC(=O)[C@H](CO)NC(=O)[C@H](CC(C)C)NC(=O)[C@H](CCC(N)=O)NC(=O)[C@H](C)NC(=O)[C@H](CC(C)C)NC(=O)[C@@H](NC(=O)[C@H](CCCCN)NC(=O)[C@H](CCCNC(=N)N)NC(=O)[C@H](Cc1ccc(O)cc1)NC(=O)[C@H](CO)NC(=O)[C@H](C)NC(=O)[C@@H](NC(=O)[C@H](Cc1ccccc1)NC(=O)[C@@H](NC(=O)[C@H](C)NC(=O)[C@H](CC(=O)O)NC(=O)[C@H](C)NC(=O)[C@H](Cc1ccc(O)cc1)NC)[C@@H](C)CC)[C@@H](C)O)C(C)C)[C@@H](C)CC)C(=O)N[C@@H](CO)C(=O)N[C@@H](CCCNC(=N)N)C(N)=O` [SP-35] (H-[NMeY]ADAIFTASYRKVLAQLSARKALQDI[Nle]SR-NH2) gave an EC50 of at most 1 nM.
